Results as given in patent publication US4910152A, “Method for binding opioid receptors” (priority 1986, dated 1990).
Entries after “also recorded” stand apart in the source; their conditions may differ. Read-outs that look alike come from different tables or passages of the source.

How the values were obtained:
[1] = biological target: T1, opioid receptors in rat brain membrane preparations (Rattus norvegicus, UniProt P33535)
Protocol: (§2) The data was analyzed, using the program LIGAND of Munson and Rodbard.

[2] = biological target: T1, opioid receptors in rat brain membrane preparations; assay: 3H-DHM displacement from rat brain membranes (Example 4 method); details: for Hill coefficient / binding activity in synaptosomal membranes (in words): 3H-DHM displacement; for binding activity in synaptosomal membranes (in words): rat brain synaptosomal membranes
Protocol: as §2

[3] = biological target: T1, opioid receptors in rat brain membrane preparations; assay: biochemical
Protocol: as §2

[4] = test system: guinea pig ileum longitudinal muscle preparation; assay: Electrically stimulated guinea pig ileum longitudinal muscle (Example 5); assay type: cell-based
Protocol: 6-FN was tested for activity on an electrically stimulated guinea pig ileum longitudinal muscle preparation. In this test, a specimen of guinea pig ileum was stretched between two wires in a nutrient solution (2.5 mil.) and stimulated supramaximally at 0.1 Hz. In the absence of opioid agonists and antagonists electrical stimulation of the muscle results in contraction.

[5] = biological target: opioid receptor sites (3H-DALE); assay: Site selectivity displacement, 3H-DALE indicator (with cold DHM); assay type: binding; details: 0.43 nM cold DHM and 0.43 nM DALE*; determined graphically
From the text: In FIG. 1 it will be noted that compounds which displace the two indicator ligands differently provide a curve which is convex towards the axis of the labeled indicator ligand which is less favorably displaced.

mouse vas deferens = biological target: T2, mouse vas deferens (Mus musculus, UniProt P32300); assay: Mouse vas deferens bioassay, single dose method, DALE agonist (Example 12); assay type: cell-based; details: for inhibitory effect on the contractions (in words) / duration / reversibility of antagonism in the m.v.d. (in words): m.v.d.; for opioid antagonism, m.v.d.: m.v.d. bioassay; for inhibition of DALE-induced contractions of the m.v.d.: 25-1000 nM, all doses tested; for Relative potency, bioassay M.V.D.: Ke of naloxone in m.v.d. taken to be 1; for t1/2 (half-time of recovery), mouse vas deferens: geometric mean (95% confidence limits); for reversal of antagonism by naloxone, m.v.d.: naloxone up to 10,000 nM; for M.V.D./G.P.I. (relative affinity): ratio of m.v.d. to G.p.i. relative potency
T2 construct: Each of several samples of mouse vas deferens (m.v.d.); tissue A-Lab, Solna, Sweden (mice); host or cells: vas deferens of male NMRI mice

[6] = biological target: T3, guinea-pig ileum myenteric plexus-longitudinal muscle (Cavia porcellus, UniProt A0ACM8Q262); assay: Guinea-pig ileum myenteric plexus-longitudinal muscle bioassay, single dose method, normorphine agonist (Example 12); assay type: cell-based; details: for opioid antagonism, G.p.i.: G.p.i. bioassay; for Relative potency, bioassay G.P.I.: Ke of naloxone in m.v.d. taken to be 1; for reversal of antagonism by naloxone, G.p.i.: addition of naloxone; for duration of action in the G.p.i. (in words): compared with parent opioids; for t1/2 (half-time of recovery), guinea-pig M. plexus / Kb: geometric mean (95% confidence limits); for Kb: agonist normorphine, read-out: Ke (dissociation constant), guinea-pig M. plexus
T3 construct: normorphine as agonist

[7] = biological target: T4, delta-type opioid binding sites (Rattus norvegicus, UniProt P33533); assay: Delta-site binding, 1 nM [3H]-DALE with 30 nM DAGO, rat brain membranes; details: for Relative potency, binding assay Delta: Ki of naloxone in inhibiting 3H-DALE taken to be 1; for Relative affinity, delta: Ki^-1 x 100 / sum of Ki^-1 values; for delta affinity / selectivity (in words): delta-type opioid receptors
T4 construct: Rat brain membranes were prepared; from tissue; host or cells: rat brain membranes
Protocol: (§1) Rat brain membranes were prepared and binding assays performed as previously described by Neil, A. in "Detection and characterization of four opioid binding sites in the mouse brain," Acta Pharmacol. Tox. 56: 108-116 (1985).

[8] = biological target: T5, mu-type opioid binding sites (Rattus norvegicus, UniProt P33535); assay: Mu-site binding, 0.2 nM [3H]-dihydromorphine, rat brain membranes; details: for Relative potency, binding assay Mu: Ki of naloxone in inhibiting 3H-DALE taken to be 1; for Relative affinity, mu: Ki^-1 x 100 / sum of Ki^-1 values; for Ki: [3H]-DHM, read-out: Ki, mu (inhibition of binding)
T5 construct: Rat brain membranes were prepared; from tissue; host or cells: rat brain membranes
Protocol: as §1

[9] = biological target: T6, kappa-type opioid binding sites (Rattus norvegicus, UniProt P34975); assay: Kappa-site binding, 1 nM [3H]-(±)-EKC with 200 nM DAGO and DADL, rat brain membranes; details: for Relative potency, binding assay Kappa: Ki of naloxone in inhibiting 3H-DALE taken to be 1; for Relative affinity, kappa: Ki^-1 x 100 / sum of Ki^-1 values
T6 construct: Rat brain membranes were prepared; from tissue; host or cells: rat brain membranes
Protocol: as §1

opioid receptors = details: Hahn, Pasternak et al.; cited from earlier work
[10] = feeding induced by 2-deoxy-D-glucose; cited from earlier work

T3 sequence (A0ACM8Q262 1-400): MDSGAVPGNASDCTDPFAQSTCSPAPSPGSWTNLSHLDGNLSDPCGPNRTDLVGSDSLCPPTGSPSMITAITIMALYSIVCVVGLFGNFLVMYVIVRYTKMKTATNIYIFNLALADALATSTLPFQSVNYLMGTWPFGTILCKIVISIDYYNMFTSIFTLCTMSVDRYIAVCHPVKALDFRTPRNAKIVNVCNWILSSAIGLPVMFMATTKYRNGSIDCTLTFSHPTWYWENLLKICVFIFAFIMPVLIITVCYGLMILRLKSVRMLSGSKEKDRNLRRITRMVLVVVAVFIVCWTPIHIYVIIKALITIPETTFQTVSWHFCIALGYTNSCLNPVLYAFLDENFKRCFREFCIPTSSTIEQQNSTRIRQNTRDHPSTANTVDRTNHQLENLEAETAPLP
T1 sequence (P33535 whole entry): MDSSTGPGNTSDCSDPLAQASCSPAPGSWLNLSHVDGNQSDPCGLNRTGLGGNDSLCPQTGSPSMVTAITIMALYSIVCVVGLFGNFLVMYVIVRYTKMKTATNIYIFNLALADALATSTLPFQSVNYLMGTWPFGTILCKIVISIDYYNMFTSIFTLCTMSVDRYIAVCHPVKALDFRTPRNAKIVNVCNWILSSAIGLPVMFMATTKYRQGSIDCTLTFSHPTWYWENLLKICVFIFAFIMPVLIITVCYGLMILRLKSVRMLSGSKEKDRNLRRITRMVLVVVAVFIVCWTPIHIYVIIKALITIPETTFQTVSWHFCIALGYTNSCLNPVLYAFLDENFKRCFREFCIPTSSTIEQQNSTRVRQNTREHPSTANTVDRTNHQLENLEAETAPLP
T5 sequence (P33535 whole entry): as above
T4 sequence (P33533 whole entry): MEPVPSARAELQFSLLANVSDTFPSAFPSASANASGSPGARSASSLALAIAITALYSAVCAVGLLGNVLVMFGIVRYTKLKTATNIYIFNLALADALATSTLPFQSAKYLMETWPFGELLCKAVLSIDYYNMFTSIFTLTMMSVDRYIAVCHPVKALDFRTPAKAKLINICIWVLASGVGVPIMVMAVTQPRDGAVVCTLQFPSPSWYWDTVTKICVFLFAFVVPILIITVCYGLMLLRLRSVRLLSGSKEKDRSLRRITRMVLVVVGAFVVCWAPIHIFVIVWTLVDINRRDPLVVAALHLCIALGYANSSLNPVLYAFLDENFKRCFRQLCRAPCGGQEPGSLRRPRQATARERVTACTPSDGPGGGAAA
T6 sequence (P34975 whole entry): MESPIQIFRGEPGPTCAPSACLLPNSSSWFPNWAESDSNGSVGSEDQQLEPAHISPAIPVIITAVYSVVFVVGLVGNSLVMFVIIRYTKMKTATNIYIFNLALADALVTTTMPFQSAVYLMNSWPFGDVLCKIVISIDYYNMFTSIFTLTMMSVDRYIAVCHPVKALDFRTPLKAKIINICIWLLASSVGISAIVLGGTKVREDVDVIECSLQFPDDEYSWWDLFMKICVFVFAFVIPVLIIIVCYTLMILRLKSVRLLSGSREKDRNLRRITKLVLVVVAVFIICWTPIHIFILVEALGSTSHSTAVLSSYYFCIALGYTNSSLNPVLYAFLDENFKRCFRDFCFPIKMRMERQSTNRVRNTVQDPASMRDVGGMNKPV
T2 sequence (P32300 whole entry): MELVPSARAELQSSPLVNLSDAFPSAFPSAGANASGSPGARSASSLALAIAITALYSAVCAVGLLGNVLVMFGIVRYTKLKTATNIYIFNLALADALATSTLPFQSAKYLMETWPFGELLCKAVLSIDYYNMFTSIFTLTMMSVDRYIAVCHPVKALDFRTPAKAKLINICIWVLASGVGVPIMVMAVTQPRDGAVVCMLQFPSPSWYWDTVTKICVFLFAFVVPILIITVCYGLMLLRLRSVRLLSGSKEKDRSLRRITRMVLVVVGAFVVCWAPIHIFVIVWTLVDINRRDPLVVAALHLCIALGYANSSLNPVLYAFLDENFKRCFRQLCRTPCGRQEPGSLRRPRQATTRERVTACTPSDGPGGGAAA

Structure (SMILES): C=CCN1CC[C@]23c4c5ccc(O)c4O[C@H]2C(NC(=S)Nc2ccc4c(c2)C(=O)OC42c4ccc(O)cc4Oc4cc(O)ccc42)CC[C@@]3(O)[C@H]1C5 (single isomer, unassigned) [FAN, N-(1-N-allyl-14-hydroxynordihydro-6δ-morphinanyl)-N'-fluorosceinyl thiourea]
- Kd [1]: 18.9 nM

Structure (SMILES): O=C1OC2(c3ccc(O)cc3Oc3cc(O)ccc32)c2ccc(NC(=S)NN=C(c3ccccc3)c3ccccc3)cc21 [6-FB, 1-(N)-fluoresceinyl benzophenone thiosemicarbazone, reference compound]
- displacement of 3H-DHM (result in words) ([2]; 10^-6 M): inactive

Structure (SMILES): C=CCN1CC[C@]23c4c5ccc(O)c4O[C@H]2C(=NNC(=S)Nc2ccc4c(c2)C(=O)OC42c4ccc(O)cc4Oc4cc(O)ccc42)CC[C@@]3(O)[C@H]1C5 [6-FN, 1-(N)-Fluoresceinyl Naloxone Thiosemicarbazone]
- Kd [3]: 11.5 nM
- Hill coefficient [2]: 0.671
- binding activity in synaptosomal membranes (in words) [2]: sufficient binding activity
- reversibility of 6-FN partial agonist activity by naloxone ([4]; 10^-6 M 6-FN, 10^-7 M naloxone): reversible with 10^-7 M naloxone
- agonist activity of 6-FN in ileum ([4]; 10^-6 M (FIG. 2)): partial agonist activity; also recorded: slight agonist effect
- inhibition of the agonist effect of normorphine ([4]; final 6-FN concentration 10^-7 M, added prior to normorphine): significantly inhibited the agonist effect of normorphine
- antagonist effect relative to naloxone ([4]; inhibition of agonist effect of normorphine, compared with naloxone): ten times less effective
- elimination of antagonist effect by washing ([4]; washing of the ileum specimen): did not readily eliminate the antagonist effect
- IC50 [5]: 17 nM

Structure (SMILES): O=C1OC2(c3ccc(O)cc3Oc3cc(O)ccc32)c2ccc(NC(=S)NN=C3CC[C@@]4(O)[C@H]5Cc6ccc(O)c7c6[C@@]4(CCN5CC4CC4)[C@H]3O7)cc21 [6-FNX, 1-(N)-fluoresceinyl naltrexone thiosemicarbazone]
- Kd [3]: 2.6 nM
- Hill coefficient [2]: 0.675
- binding activity in synaptosomal membranes (in words) [2]: sufficient binding activity

Structure (SMILES): CN1CC[C@]23c4c5ccc(O)c4O[C@H]2C(=NNC(=S)Nc2ccc4c(c2)C(=O)OC42c4ccc(O)cc4Oc4cc(O)ccc42)CC[C@@]3(O)[C@H]1C5 [6-FO, 1-(N)-fluoresceinyl oxymorphone thiosemicarbazone]
- Hill coefficient [2]: 0.989
- binding activity in synaptosomal membranes (in words) [2]: sufficient binding activity
- Kd [1]: 12.8 nM

Structure (SMILES): C=CCN1CC[C@]23c4c5ccc(O)c4O[C@H]2C(=NNC(=S)Nc2ccc(-c4c6ccc(=[N+](C)C)cc-6oc6cc(N(C)C)ccc46)c(C(=O)[O-])c2)CC[C@@]3(O)[C@H]1C5 [6-RN, 1-(N)-tetramethylrhodaminyl-B-naloxone Thiosemicarbazone]
- Hill coefficient [2]: 1.09
- binding activity in synaptosomal membranes (in words) [2]: sufficient binding activity
- IC50 ([2]; read-out: IC50 (concentration necessary for 50% displacement of 3H-DHM), rat brain synaptosomal plasma membranes, determined graphically): 12 nM
- Kd [1]: 5.3 nM

Structure (SMILES): C[C@]12CC[C@@H]3c4ccc(O)cc4CC[C@H]3[C@@H]1CC[C@@H]2O [17-beta-estradiol, reference compound]
- inhibitory effect on the contractions (in words) (mouse vas deferens): no inhibitory effect on the contractions
- opioid antagonism, m.v.d. (mouse vas deferens): none of the steroids, EH, ADDH or 17-beta-estradiol, showed opioid antagonism
- opioid antagonism, G.p.i. [6]: none of the steroids, EH, ADDH or 17-beta-estradiol, showed opioid antagonism

Structure (SMILES): C[C@]12CCC(=NN)C=C1CC[C@@H]1[C@@H]2CC[C@]2(C)C(=NN)CC[C@@H]12 [ADDH, Δ^4 androstenedione-(3,17)-dihydrazone, reference compound]
- inhibitory effect on the contractions (in words) (mouse vas deferens): inhibitory effects of magnitudes similar to NAL-E and NAL-AD-NAL
- opioid antagonism, m.v.d. (mouse vas deferens): none of the steroids, EH, ADDH or 17-beta-estradiol, showed opioid antagonism
- opioid antagonism, G.p.i. [6]: none of the steroids, EH, ADDH or 17-beta-estradiol, showed opioid antagonism

Structure (SMILES): C[C@]12CC[C@@H]3c4ccc(O)cc4CC[C@H]3[C@@H]1CCC2=NN [EH, estrone hydrazone, reference compound]
- inhibitory effect on the contractions (in words) (mouse vas deferens): inhibitory effects of magnitudes similar to NAL-E and NAL-AD-NAL
- opioid antagonism, m.v.d. (mouse vas deferens): none of the steroids, EH, ADDH or 17-beta-estradiol, showed opioid antagonism
- opioid antagonism, G.p.i. [6]: none of the steroids, EH, ADDH or 17-beta-estradiol, showed opioid antagonism

Structure (SMILES): C=CCN1CC[C@]23c4c5ccc(O)c4O[C@H]2C(=NN=C2C=C4CC[C@@H]6[C@H](CC[C@]7(C)C(=NN=C8CC[C@@]9(O)[C@H]%10Cc%11ccc(O)c%12c%11[C@@]9(CCN%10CC=C)[C@H]8O%12)CC[C@@H]67)[C@@]4(C)CC2)CC[C@@]3(O)[C@H]1C5 [NAL-AD-NAL]
- Relative potency, binding assay Delta [7]: 3.4
- Relative affinity, delta [7]: 5
- delta affinity / selectivity (in words) [7]: not to show a high delta affinity
- Relative potency, binding assay Mu [8]: 18.0
- Relative affinity, mu [8]: 78
- Ki [8]: 1.6 nM
- mu receptor affinity (in words) ([8]; compared with naloxone): mu receptor affinity on the order of naloxone
- Kb (mouse vas deferens): 37 nM
- inhibition of DALE-induced contractions of the m.v.d. (mouse vas deferens): 20-50%
- Relative potency, bioassay M.V.D. (mouse vas deferens): 1.4
- t1/2 (half-time of recovery), mouse vas deferens (mouse vas deferens): 19 (14-24) min
- reversal of antagonism by naloxone, m.v.d. (mouse vas deferens): not reversed by addition of naloxone
- M.V.D./G.P.I. (relative affinity) (mouse vas deferens): 0.16
- Relative potency, bioassay G.P.I. [6]: 8.9
- reversal of antagonism by naloxone, G.p.i. [6]: Nor were the NAL-E or NAL-AD-NAL antagonisms in the G.p.i. reversed by naloxone
- duration of action in the G.p.i. (in words) [6]: somewhat longer acting than their parent opioids
- t1/2 (half-time of recovery), guinea-pig M. plexus [6]: 34 min
- Kb [6]: 5.7 nM
- Relative potency, binding assay Kappa [9]: 0.19
- Relative affinity, kappa [9]: 7

Structure (SMILES): C=CCN1CC[C@]23c4c5ccc(O)c4O[C@H]2C(=NN=C2CC[C@H]4[C@@H]6CCc7cc(O)ccc7[C@H]6CC[C@]24C)CC[C@@]3(O)[C@H]1C5 [NAL-E]
- Relative potency, binding assay Delta [7]: 7.4
- Relative affinity, delta [7]: 70
- delta affinity / selectivity (in words) [7]: delta selective; also recorded: long lasting and selectively and preferentially bind delta-type opioid receptors
- delta affinity / selectivity (in words) ([7]; listed as Nal-E): far more delta selective than naloxone
- Relative potency, binding assay Mu [8]: 1.7
- Relative affinity, mu [8]: 16
- Ki [8]: 17 nM
- Kb (mouse vas deferens): 5.8 nM
- inhibition of DALE-induced contractions of the m.v.d. (mouse vas deferens): 20-50%
- Relative potency, bioassay M.V.D. (mouse vas deferens): 8.8
- antagonist potency versus naloxone, m.v.d. (mouse vas deferens; antagonism of DALE effects): nine-fold more potent than naloxone
- selectivity in antagonizing D-Ala2-Leu5-enkephalin effects (in words) (mouse vas deferens; compared with naloxone, delta-rich tissue): far more selective than naloxone
- t1/2 (half-time of recovery), mouse vas deferens (mouse vas deferens): > 1000 min
- duration / reversibility of antagonism in the m.v.d. (in words) (mouse vas deferens): very longlasting; also recorded: very long lasting effects
- duration / reversibility of antagonism in the m.v.d. (in words) (mouse vas deferens; listed as NALE): almost irreversible in some observations
- reversal of antagonism by naloxone, m.v.d. (mouse vas deferens): not reversed by addition of naloxone
- M.V.D./G.P.I. (relative affinity) (mouse vas deferens): 12.0
- Relative potency, bioassay G.P.I. [6]: 0.74
- reversal of antagonism by naloxone, G.p.i. [6]: Nor were the NAL-E or NAL-AD-NAL antagonisms in the G.p.i. reversed by naloxone
- selectivity in antagonizing normorphine (in words) ([6]; compared with naloxone, mu-rich tissue): far less selective
- duration of action in the G.p.i. (in words) [6]: somewhat longer acting than their parent opioids
- t1/2 (half-time of recovery), guinea-pig M. plexus [6]: 27 min
- Kb [6]: 69 nM
- fold less potent than naloxone, G.p.i. ([6]; less potent than naloxone): 22 fold
- Relative potency, binding assay Kappa [9]: 4.4
- Relative affinity, kappa [9]: 14

Structure (SMILES): C=CCN1CC[C@]23c4c5ccc(O)c4O[C@H]2C(=NN=C2CC[C@@]4(O)[C@H]6Cc7ccc(O)c8c7[C@@]4(CCN6CC=C)[C@H]2O8)CC[C@@]3(O)[C@H]1C5 [naloxone azine]
- persistence of binding (in words) (opioid receptors): long lasting effect

Structure (SMILES): C=CCN1CC[C@]23c4c5ccc(O)c4O[C@H]2C(=O)CC[C@@]3(O)[C@H]1C5 [naloxone, reference compound]
- t1/2 (half-time of recovery), guinea-pig M. plexus [6]: 15 min

Structure (SMILES): O=C1CC[C@@]2(O)[C@H]3Cc4ccc(O)c5c4[C@@]2(CCN3CC2CC2)[C@H]1O5 [naltrexone]
- suppression of feeding [10]: effective in suppressing feeding

Structure (SMILES): Oc1ccc2c3c1O[C@H]1[C@@H](O)C=C[C@H]4[C@@H](C2)NCC[C@@]341 [normorphine, reference compound]
- inhibition of contraction of the muscle (agonist effect) ([4]; 25 microliters, 10^-7 M): substantially inhibited contraction of the muscle
